In patent US9399647B2, “Proteasome activity modulating compounds” (Proteostasis Therapeutics, Inc., priority 2012, dated 2016):

The molecules below were run against USP14 (Homo sapiens, UniProt P54578) (assay: USP14 inhibition assay). Settings: not given.
Format: biochemical
From the text: The IC50 values in the Table below represent the average value from three experimental determinations.
These IC50 values represent the average value from three experimental determinations.

Sequence of USP14 (P54578 whole entry): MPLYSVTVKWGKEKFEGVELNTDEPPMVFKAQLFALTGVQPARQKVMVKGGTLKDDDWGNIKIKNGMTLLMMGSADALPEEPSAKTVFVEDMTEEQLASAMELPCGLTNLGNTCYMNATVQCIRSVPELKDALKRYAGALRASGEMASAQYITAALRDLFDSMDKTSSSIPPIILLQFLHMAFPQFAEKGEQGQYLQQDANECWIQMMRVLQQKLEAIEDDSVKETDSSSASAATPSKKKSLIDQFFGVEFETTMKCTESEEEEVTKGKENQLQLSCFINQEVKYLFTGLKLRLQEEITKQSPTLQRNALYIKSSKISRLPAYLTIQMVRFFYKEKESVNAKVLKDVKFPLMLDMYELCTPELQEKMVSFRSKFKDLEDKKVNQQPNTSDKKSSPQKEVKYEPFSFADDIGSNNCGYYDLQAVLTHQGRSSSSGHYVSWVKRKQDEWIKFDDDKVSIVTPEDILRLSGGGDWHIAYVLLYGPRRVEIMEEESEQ
Sequence of USP14 (Q13200 whole entry partner): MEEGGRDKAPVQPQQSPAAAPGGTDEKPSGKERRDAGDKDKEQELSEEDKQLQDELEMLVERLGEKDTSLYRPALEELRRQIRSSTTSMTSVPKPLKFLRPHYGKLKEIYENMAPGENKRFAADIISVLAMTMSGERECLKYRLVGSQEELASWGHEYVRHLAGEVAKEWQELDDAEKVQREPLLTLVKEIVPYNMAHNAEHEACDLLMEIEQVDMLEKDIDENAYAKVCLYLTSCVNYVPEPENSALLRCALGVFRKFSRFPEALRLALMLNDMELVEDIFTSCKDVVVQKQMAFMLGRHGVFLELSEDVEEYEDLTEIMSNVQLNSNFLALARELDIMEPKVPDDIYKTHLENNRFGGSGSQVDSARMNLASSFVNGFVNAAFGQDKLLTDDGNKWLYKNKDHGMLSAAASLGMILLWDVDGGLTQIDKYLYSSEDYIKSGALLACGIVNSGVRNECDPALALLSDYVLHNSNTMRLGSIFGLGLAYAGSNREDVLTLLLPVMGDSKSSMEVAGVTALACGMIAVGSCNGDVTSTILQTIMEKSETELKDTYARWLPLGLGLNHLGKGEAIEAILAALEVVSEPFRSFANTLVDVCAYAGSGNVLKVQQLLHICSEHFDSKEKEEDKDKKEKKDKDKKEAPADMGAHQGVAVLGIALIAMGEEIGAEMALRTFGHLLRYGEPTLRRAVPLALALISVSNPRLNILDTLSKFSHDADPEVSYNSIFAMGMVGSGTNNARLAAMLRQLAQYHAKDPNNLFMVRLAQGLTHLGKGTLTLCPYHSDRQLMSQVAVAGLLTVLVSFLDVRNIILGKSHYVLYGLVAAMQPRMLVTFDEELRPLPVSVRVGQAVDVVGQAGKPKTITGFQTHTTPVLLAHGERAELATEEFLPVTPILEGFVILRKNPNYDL
Sequence of USP14 (P35998 whole entry partner): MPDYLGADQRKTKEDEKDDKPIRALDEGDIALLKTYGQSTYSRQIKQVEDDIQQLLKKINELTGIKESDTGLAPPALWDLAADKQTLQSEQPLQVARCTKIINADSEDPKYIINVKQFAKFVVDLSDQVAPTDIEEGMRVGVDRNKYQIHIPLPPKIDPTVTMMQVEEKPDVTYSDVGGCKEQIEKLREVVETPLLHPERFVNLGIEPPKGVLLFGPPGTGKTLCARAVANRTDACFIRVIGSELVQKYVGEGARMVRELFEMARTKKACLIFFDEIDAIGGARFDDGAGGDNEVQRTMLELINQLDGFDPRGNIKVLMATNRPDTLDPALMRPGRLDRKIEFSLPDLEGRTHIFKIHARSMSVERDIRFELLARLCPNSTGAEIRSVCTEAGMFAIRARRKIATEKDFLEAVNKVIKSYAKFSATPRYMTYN

SMILES | IC50 [µM]
CN(c1nc(CC(=O)N2CCC(=O)CC2)nc2sc3c(c12)CCCC3)C1CC1 [Compound 14, 1-{2-[4-(Cyclopropyl-methyl-amino)-5,6,7,8-tetrahydro-benzo[4,5]thieno[2,3-d]pyrimidin-2-yl]-acetyl}-piperidin-4-one] | < 1

Same assay, conditions: average value from three experimental determinations; read-out: USP14 IC50

SMILES | IC50 [µM]
CNC(=O)Cc1nc(N(C)C2CC2)c2c3c(sc2n1)CCCC3 [Compound 1, 2-(4-(Cyclopropyl(methyl)amino)-5,6,7,8-tetrahydrobenzo[4,5]thieno[2,3-d]pyrimidin-2-yl)-N-methylacetamide] | 1.1
CN(c1nc(CC(=O)O)nc2sc3c(c12)CCCC3)C1CC1 [Compound 2, 2-(4-(Cyclopropyl(methyl)amino)-5,6,7,8-tetrahydrobenzo[4,5]thieno[2,3-d]pyrimidin-2-yl)acetic acid] | 1.6

Same assay, conditions: average value from three experimental determinations; reported as potency bands; read-out: IC50 (USP14 inhibition)

SMILES | IC50 [µM]
CN(c1nc(CC(=O)N2CCCC2)nc2sc3c(c12)CCCC3)C1CC1 [Compound 6, 2-[4-(Cyclopropyl-methyl-amino)-5,6,7,8-tetrahydro-benzo[4,5]thieno[2,3-d]pyrimidin-2-yl]-1-pyrrolidin-1-yl-ethanone] | < 1
CN(C)C(=O)Cc1nc(N2CCCC2)c2c3c(sc2n1)CCCC3 [Compound 42, N,N-Dimethyl-2-(4-pyrrolidin-1-yl-5,6,7,8-tetrahydro-benzo[4,5]thieno[2,3-d]pyrimidin-2-yl)-acetamide] | > 5
CN(c1nc(CCC(=O)O)nc2sc3c(c12)CCCC3)C1CC1 [Compound 47, 3-[4-(Cyclopropyl-methyl-amino)-5,6,7,8-tetrahydro-[1]benzothiopheno[2,3-d]pyrimidin-2-yl]-propionic acid] | 1 to 5
CN(c1nc(CC(=O)N2CCC(N3CCOCC3)CC2)nc2sc3c(c12)CCCC3)C1CC1 [Compound 32, 2-[4-(Cyclopropyl-methyl-amino)-5,6,7,8-tetrahydro-benzo[4,5]thieno[2,3-d]pyrimidin-2-yl]-1-(4-morpholin-4-yl-piperidin-1-yl)-ethanone] | < 1
CN(c1nc(CC(=O)N2CCC(O)C2)nc2sc3c(c12)CCCC3)C1CC1 (centres unmarked) [Compound 29, 2-[4-(Cyclopropyl-methyl-amino)-5,6,7,8-tetrahydro-benzo[4,5]thieno[2,3-d]pyrimidin-2-yl]-1-(3-hydroxy-pyrrolidin-1-yl)-ethanone] | < 1
CCOC(=O)Cc1nc(N(C)CC)c2c3c(sc2n1)CCCC3 [Compound 40, [4-(Ethyl-methyl-amino)-5,6,7,8-tetrahydro-benzo[4,5]thieno[2,3-d]pyrimidin-2-yl]-acetic acid ethyl ester] | > 5
CN(c1nc(CC(=O)N2CCC(C(N)=O)CC2)nc2sc3c(c12)CCCC3)C1CC1 [Compound 31, 1-{2-[4-(Cyclopropyl-methyl-amino)-5,6,7,8-tetrahydro-benzo[4,5]thieno[2,3-d]pyrimidin-2-yl]-acetyl}-piperidine-4-carboxylic acid amide] | < 1
CCN(C)c1nc(CC(=O)O)nc2sc3c(c12)CCCC3 [Compound 45, [4-(Ethyl-methyl-amino)-5,6,7,8-tetrahydro-benzo[4,5]thieno[2,3-d]pyrimidin-2-yl]-acetic acid] | > 5
CN(c1nc(CC(=O)N2CCC(S(C)(=O)=O)C2)nc2sc3c(c12)CCCC3)C1CC1 (centres unmarked) [Compound 25, 2-[4-(Cyclopropyl-methyl-amino)-5,6,7,8-tetrahydro-benzo[4,5]thieno[2,3-d]pyrimidin-2yl]-1-(3-methanesulfonyl-pyrrolidin-1-yl)-ethanone] | < 1
CN(c1nc(CC(=O)NCCc2ccncc2)nc2sc3c(c12)CCCC3)C1CC1 [Compound 22] | > 5
CN(c1nc(CC(=O)N2CC[C@@H](C(C)(C)O)C2)nc2sc3c(c12)CCCC3)C1CC1 [Compound 37, 2-[4-(Cyclopropyl-methyl-amino)-5,6,7,8-tetrahydro-benzo[4,5]thieno[2,3-d]pyrimidin-2-yl]-1-[(R)-3-(1-hydroxy-1-methyl-ethyl)-pyrrolidin-1-yl]-ethanone] | < 1
